Here are results for three compounds from US20230263757A1, “DISINFECTING WIPE KIT FOR CENTRAL VENOUS ACCESS DEVICES” (SterileCare Inc., priority 2022, published 2023).

Counter-ions that a name gives are not always drawn. Like-named read-outs stand apart in the source and are kept apart here.

The subject of experiment [1] is Candida albicans SK4b. In words: Checkerboard, FMCI. In kind it is cell-based. The conditions noted are these: for microbicidal concentration in combination: EDTA + ethanol. How it is done: (§1) An assay was made using a minimum inhibitory concentration (MIC) and minimum bactericidal concentration (MBC) and minimum fungicidal concentration (MFC) determination. The MIC was determined by the micro broth dilution method in 96-well plates. Serial two-fold dilutions of tetrasodium EDTA (from 2% to 0.015%), ethanol (from 50% to 0.1%) and chlorhexidine HCl (from 100 μg/mL to 0.025 μg/mL) were prepared in MH broth with a final volume of 90 μL per well. A 10 μL containing 1×10^5 bacterial cells or 2×10^3 fungal cells were added to each well. The inoculated plates were covered with a lid, sealed with Parafilm, and incubated for 24 h at 37° C. with slight rocking on a tilting platform shaker. After incubation, the optical density at 600 nm (OD 600) of the cultures in each well was measured using an xMark™ Microplate Absorbance Spectrophotometer (Bio-Rad). […] MBCs and MFCs were determined by transferring 100 μL from each well with no apparent growth onto appropriate agar plates, followed by incubation for 24 h at 37° C.
(§2) A fourth composition and solution included tetrasodium EDTA with ethanol or chlorhexidine HCl. This fourth composition and solution were created using checkerboard titration methods using micro broth dilution in 96-well microtiter plates. The concentrations of antimicrobials used were based on previously determined MIC values. Briefly, 200 μL, of two-fold dilutions of tetrasodium EDTA and ethanol or chlorhexidine HCl were prepared in MH or MH II broth with standardized cell suspension. […] Microtiter plates were incubated at 37° C. for 24 h, and the results were analyzed. Each test was performed in duplicate and included a growth control without adding any antimicrobials.

The subject of experiment [2] is Proteus mirabilis ON153. Briefly: Checkerboard, FMCI. In kind it is cell-based. The conditions noted are these: for microbicidal concentration in combination: EDTA + ethanol. How it is done:
as §1, §2

Experiment [3] deals with Staphylococcus aureus ON89. Briefly: Checkerboard, FMCI. It counts as cell-based. The conditions noted are these: for microbicidal concentration in combination: EDTA + ethanol. Here is the method:
as §1, §2

The test system of experiment [4] is Serratia marcescens SK2. In words: Checkerboard, FMCI. It counts as cell-based. The conditions noted are these: for microbicidal concentration in combination: EDTA + ethanol. How it is done: as §1, §2
For experiment [5], the system named is Stenotrophomonas maltophilia ON17. Briefly: Checkerboard, FMCI. The conditions noted are these: for microbicidal concentration in combination: EDTA + ethanol. In kind it is cell-based. Here is the method:
as §1, §2

Experiment [6] concerns Pseudomonas aeruginosa SK1. In words: Checkerboard, FMCI. In kind it is cell-based. The conditions noted are these: for microbicidal concentration in combination: EDTA + ethanol. Here is the method:
as §1, §2

The subject of experiment [7] is Staphylococcus epidermidis ON170. Briefly: Checkerboard, FMCI. In kind it is cell-based. The conditions noted are these: for microbicidal concentration in combination: EDTA + ethanol. How it is done: as §1, §2
For experiment [8], the system named is Escherichia coli ON29. In words: Checkerboard, FMCI. In kind it is cell-based. The conditions noted are these: for microbicidal concentration in combination: EDTA + ethanol. Here is the method:
as §1, §2

The subject of experiment [9] is E. coli SK2. In words: MIC, micro broth dilution. It counts as cell-based, Escherichia coli. The conditions noted are these: alone. Here is the method: as §1
On the technique in general: Dilution methods test growth across graded concentrations, often in twofold steps.

In experiment [10] the test system is S. epidermidis SK9. Briefly: Checkerboard titration, FICI. In kind it is cell-based, Staphylococcus epidermidis. The conditions noted are these: for concentration in combination: EDTA + ethanol. How it is done:
as §2

Experiment [11] has as its system E. coli SK2. Briefly: Checkerboard titration, FICI. In kind it is cell-based, Escherichia coli. The conditions noted are these: for concentration in combination: EDTA + ethanol. Here is the method: as §2
Experiment [12] deals with Staphylococcus aureus ON89. Briefly: FBEC index, checkerboard on biofilms. It counts as cell-based. The conditions noted are these: for biofilm eradication concentration in combination (FBEC): EDTA + ethanol.
Protocol: In step (4), microtiter plates are incubated at 37° C. for 24 h. then (6), after incubation, the bacterial and fungal cells were dislodged from the pegs into the recovery medium described above.
Three 10-μL aliquots, for a total of 30 μL from each well of recovery medium, were spotted on MH agar plates and incubated for 24 h at 37° C. […] The FBEC determination is a modification of the FICI.
For experiment [13], the system named is Candida albicans SK4b. Briefly: MBEC assay, 48-h biofilm, 24 h exposure. It counts as cell-based. How it is done: (§3) A biofilm cultivation cell composition was provided. This fifth composition was created using an MBEC Assay® biofilm inoculator, consisting of a polystyrene lid with 96 downward-protruding pegs and a corresponding base used to grow biofilms. A standardized inoculum was diluted in an appropriate biofilm growth medium to achieve a viable cell count of 1.5×10^6 CFU/mL of bacterial cells or 5×10^5 CFU/mL of fungal cells. Then, 150 μL of this inoculum was transferred into each appropriate well, and the peg lids were inserted into the microtiter plates. The plates were sealed with Parafilm and were incubated at optimum temperature for 48 h with slight rocking for bacteria and shaking at 200 rpm for fungal strains. After incubation, the peg lid was removed from the base and rinsed twice with sterile phosphate-buffered saline (PBS) for 2 min to remove loosely attached non-sessile cells. Before the antimicrobial challenge, the pegs in column 1 (n=8) were considered the biofilm growth control; these pegs were removed from the lids, placed into 200 μL of recovery medium, and analyzed for starting biofilm cell numbers as described below. The rinsed pegs were placed into new 96-well plates containing two-fold dilutions of antimicrobials such as tetrasodium EDTA (4%-0.0125%), ethanol (100%-0.2%), and chlorhexidine HCl (100 μg/mL-0.4 μg/mL) in 200 μL of suitable biofilm growth medium per well and incubated at optimum temperature for 24 h. After the antimicrobial challenge, the pegs were rinsed twice with sterile PBS for 2 min and placed into a new 96-well plate containing 200 μL of recovery medium. The recovery plates were sealed with Parafilm, and biofilm cells were dislodged from the pegs by sonication for 30 min with a Branson 3510 bath sonicator. The biofilm cells in the recovery medium were serially diluted, and a drop dilution assay was performed to enumerate the viable cells. MBEC values were determined as the minimum concentration of antimicrobials that yielded a viable cell count at or lower than the 125 CFU/mL detection limit.

For experiment [14], the system named is Proteus mirabilis ON153. Briefly: MBEC assay, 48-h biofilm, 24 h exposure. In kind it is cell-based. Here is the method: as §3
The test system of experiment [15] is Staphylococcus aureus ON89. Briefly: MBEC assay, 48-h biofilm, 24 h exposure. It counts as cell-based. Here is the method:
as §3

The subject of experiment [16] is Staphylococcus epidermidis SK9. In words: MBEC assay, 48-h biofilm, 24 h exposure. In kind it is cell-based. Here is the method:
as §3

Experiment [17] concerns Pseudomonas aeruginosa SK1. In words: MBEC assay, 48-h biofilm, 24 h exposure. In kind it is cell-based. Here is the method:
as §3

For experiment [18], the system named is Escherichia coli SK2. Briefly: MBEC assay, 48-h biofilm, 24 h exposure. In kind it is cell-based. How it is done:
as §3

The subject of experiment [19] is 48-h-old biofilms of all of the test organisms. Briefly: Rapid biofilm eradication, 2-h exposure. In kind it is cell-based. The conditions noted are these: two h of exposure; preformed biofilms. How it is done: Determining rapid biofilm eradication by tetrasodium EDTA, ethanol, and chlorhexidine HCl alone and in combination was performed. After biofilm formation, control pegs (n=6) were removed and analyzed to determine the starting biofilm cell numbers via the drop dilution method. The 48-h old biofilms on the pegs were exposed to different concentrations of test antimicrobials, dissolved in an appropriate growth medium, for two h to evaluate their efficacy alone and in combination. Antimicrobial solutions tested against each organism included each agent alone at the MBEC, double combinations at the FBEC, and triple combinations ranging from 5 to 20% ethanol, 2.5-5 μg/mL chlorhexidine HCl and 1-3% tetrasodium EDTA. Following treatment, pegs were washed twice with sterile PBS, and the biofilm cells were dislodged into recovery medium and enumerated as described above.
The method for rapid biofilm eradication ability of test antimicrobials alone and in combination against 48-h-old biofilms within two h exposure time included (1) choosing different concentrations of test antimicrobials to assess their potency in eradicating preformed biofilms of study organisms within two h. Then (2) the quantitative recovery from biofilms following exposure to the antimicrobial solutions for bacterial strains (FIGS. 9A-9B) and fungal strains (FIG. 5) was evaluated.

On to `[H]/N=C(\N/C(=N/[H])NCCCCCCNC(=N)NC(=N)Nc1ccc(Cl)cc1)Nc1ccc(Cl)cc1` [Chlorhexidine HCl, 1,6-bis(4′-chlorophenylbiguanide) hexane], for which the “Chlorhexidine HCl microbicidal concentration in combination” value in experiment [1] (EDTA + chlorhexidine HCl) worked out at 0.8 µg/mL; in experiment [2] (EDTA + chlorhexidine HCl), 1.6 µg/mL; in [3] (EDTA + chlorhexidine HCl), 0.2 µg/mL; in experiment [4] (EDTA + chlorhexidine HCl), 1.6 µg/mL; in [5] (EDTA + chlorhexidine HCl) it was 0.4 µg/mL; in experiment [6] (EDTA + chlorhexidine HCl), 1.6 µg/mL. In addition, the “Chlorhexidine HCl microbicidal concentration in combination” value was determined as 0.4 µg/mL in [7] (EDTA + chlorhexidine HCl) and 0.2 µg/mL in experiment [8] (EDTA + chlorhexidine HCl). Besides, the MIC in [9] (Escherichia coli, read-out: MIC) was 0.4 µg/mL. Also, the “Chlorhexidine HCl concentration in combination” value was 0.025 µg/mL in [10] (EDTA + chlorhexidine HCl) and 0.1 µg/mL in [11] (EDTA + chlorhexidine HCl). Besides, in experiment [12] (EDTA + chlorhexidine HCl), the “Chlorhexidine HCl biofilm eradication concentration in combination (FBEC)” value was 3.125 µg/mL. The MBEC in [13] was 50 µg/mL; in experiment [14], 100 µg/mL; in experiment [15], 100 µg/mL; in [16], 25 µg/mL; in [17], 100 µg/mL; in experiment [18] it was 50 µg/mL. Besides, the “biofilm eradication at the MBEC alone” value in experiment [19] is “failed to eradicate”.

Regarding `O=C([O-])CN(CCN(CC(=O)[O-])CC(=O)[O-])CC(=O)[O-].[Na+].[Na+].[Na+].[Na+]` [EDTA, tetrasodium EDTA], the “EDTA microbicidal concentration in combination” value in [1] (EDTA + chlorhexidine HCl) was 0.125 % w/v; in experiment [2] (EDTA + chlorhexidine HCl) it was 0.125 % w/v; in [3] (EDTA + chlorhexidine HCl) it was 0.008 % w/v; in experiment [4] (EDTA + chlorhexidine HCl) it was 0.125 % w/v; in experiment [5] (EDTA + chlorhexidine HCl), 0.031 % w/v; in [6] (EDTA + chlorhexidine HCl) it was 0.031 % w/v. In addition, the “EDTA microbicidal concentration in combination” value in experiment [7] (EDTA + chlorhexidine HCl) is recorded as 0.25 % w/v; in experiment [8] (EDTA + chlorhexidine HCl) it was 0.008 % w/v. The “microbicidal concentration in combination” value in experiment [1] is reported as 0.25 % w/v; in [2], 0.063 % w/v; in [3] it was 0.25 % w/v; in experiment [4], 0.25 % w/v; in [5] it was 0.125 % w/v; in experiment [6], 0.031 % w/v. The “microbicidal concentration in combination” value amounted to 0.031 % w/v in experiment [7] and 0.25 % w/v in experiment [8]. In [9], this compound returned an MIC of 0.5 % w/v. Besides, the “EDTA concentration in combination” value was 0.015 % w/v in experiment [10] (EDTA + chlorhexidine HCl) and 0.008 % w/v in [11] (EDTA + chlorhexidine HCl). In addition, the concentration in combination in experiment [10] and in experiment [11] was 0.015 % w/v each time. The “EDTA biofilm eradication concentration in combination (FBEC)” value in experiment [12] (EDTA + chlorhexidine HCl) was 0.125 % w/v. Also, the “biofilm eradication concentration in combination (FBEC)” value in experiment [12] worked out at 0.063 % w/v. In addition, the MBEC in experiment [13] is 1 % w/v; in experiment [14], 4 % w/v; in experiment [15] it was 4 % w/v; in experiment [16], 2 % w/v; in [17] it was 4 % w/v; in experiment [18] it was 2 % w/v. Besides, the “biofilm eradication at the MBEC alone” value in experiment [19] is “failed to eradicate”.

For the compound `CCO` [Ethanol, ethanol], the “microbicidal concentration in combination” value in experiment [1] is reported as 3.125 % w/v; in [2], 6.25 % w/v; in experiment [3], 3.125 % w/v; in [4], 6.25 % w/v; in [5], 1.6 % w/v; in experiment [6], 6.25 % w/v. Besides, the results for the “microbicidal concentration in combination” value in experiment [7] and in experiment [8] were 1.6 % w/v and 6.25 % w/v, respectively. Moreover, the MIC in [9] is on record as 12.5 % w/v. For the same compound, the concentration in combination is given as 0.4 % w/v in experiment [10] and 6.25 % w/v in experiment [11]. In addition, in experiment [12], the “biofilm eradication concentration in combination (FBEC)” value was 0.8 % w/v. Further, the MBEC is recorded as 12.5 % w/v in experiment [13]; 50 % w/v in experiment [14]; 12.5 % w/v in experiment [15]; 12.5 % w/v in [16]; 12.5 % w/v in experiment [17]; 12.5 % w/v in [18]. For the same compound, the “biofilm eradication at the MBEC alone” value in experiment [19] is listed as “failed to eradicate”.
